Laboratory results from BindingDB's records for doi:10.1016/j.bmc.2008.07.062 (Astellas Pharma, 2008).

Legend:
[1] = Antagonist activity at human CCR4 receptor assessed as inhibition of CCL22-induced chemotaxis by bioluminescent assay
[2] = Antagonist activity at mouse CCR4 receptor assessed as inhibition of CCL22-induced chemotaxis by bioluminescent assay

With `COc1cc2nc(N3CCC(N(C)CCCO)CC3)nc(Nc3ccc(Cl)cc3)c2cc1OC` [3-[(1-{4-[(4-Chlorophenyl)amino]-6,7-dimethoxyquinazolin-2-yl}piperidin-4-yl)(methyl)amino]propan-1-ol] the IC50 [1] was 0.28 µM.
For `COc1cc2nc(N3CCC(N4CCCC4)CC3)nc(Nc3ccc(F)c(F)c3)c2cc1OC` [N-(3,4-Difluorophenyl)-6,7-dimethoxy-2-(4-pyrrolidin-1-ylpiperidin-1-yl)quinazolin-4-amine], the IC50 [2] was 0.82 µM and the IC50 [1] was 0.069 µM.
For `COc1cc2nc(N3CCC(N4CCCC4)CC3)nc(Nc3ccc(F)cc3)c2cc1OC` [N-(4-Fluorophenyl)-6,7-dimethoxy-2-(4-pyrrolidin-1-ylpiperidin-1-yl)quinazolin-4-amine], the IC50 [2] was 0.71 µM and the IC50 [1] was 0.32 µM.
Work on `COc1cc2nc(N3CCC(N(C)CCCCO)CC3)nc(Nc3ccc(Cl)cc3)c2cc1OC` [4-[(1-{4-[(4-Chlorophenyl)amino]-6,7-dimethoxyquinazolin-2-yl}piperidin-4-yl)(methyl)amino]butan-1-ol] yielded an IC50 [1] of 0.36 µM.
